In paper PMC7238120, “Strong and Selective Inhibitory Effects of the Biflavonoid Selamariscina A against CYP2C8 and CYP2C9 Enzyme Activities in Human Liver Microsomes” (Pharmaceutics, 2020):
Where two headings read alike, the source gives them in different places.

Legend:
[1] = target: T1, UGT1A1 (Homo sapiens, UniProt P22309); design: method as in PMID 29470958; details: read-out: IC50, UGT1A1, previously reported value; cited from earlier work
T1 sequence (P22309 26-533): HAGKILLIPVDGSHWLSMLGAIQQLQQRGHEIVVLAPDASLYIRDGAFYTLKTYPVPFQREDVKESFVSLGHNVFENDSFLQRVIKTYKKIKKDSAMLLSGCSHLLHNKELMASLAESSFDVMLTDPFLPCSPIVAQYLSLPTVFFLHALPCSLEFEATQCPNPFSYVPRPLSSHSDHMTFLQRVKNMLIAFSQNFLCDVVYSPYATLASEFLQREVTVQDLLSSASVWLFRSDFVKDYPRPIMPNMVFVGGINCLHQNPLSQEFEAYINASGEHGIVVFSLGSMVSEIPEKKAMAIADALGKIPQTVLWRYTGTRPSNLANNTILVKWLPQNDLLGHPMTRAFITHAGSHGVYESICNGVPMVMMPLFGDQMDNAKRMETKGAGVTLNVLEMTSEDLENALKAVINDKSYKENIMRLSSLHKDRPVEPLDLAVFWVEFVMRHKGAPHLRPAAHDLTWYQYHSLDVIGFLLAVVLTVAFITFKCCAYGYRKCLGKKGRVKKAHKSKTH

[2] = target: CYP2C9 (Homo sapiens, UniProt P11712); details: compared with diclofenac hydroxylase inhibition; S-mephenytoin 25 µM printed as substrate; read-out: IC50 reported by von Moltke et al. (2004); cited from earlier work
Sequence of CYP2C9 (P11712 whole entry): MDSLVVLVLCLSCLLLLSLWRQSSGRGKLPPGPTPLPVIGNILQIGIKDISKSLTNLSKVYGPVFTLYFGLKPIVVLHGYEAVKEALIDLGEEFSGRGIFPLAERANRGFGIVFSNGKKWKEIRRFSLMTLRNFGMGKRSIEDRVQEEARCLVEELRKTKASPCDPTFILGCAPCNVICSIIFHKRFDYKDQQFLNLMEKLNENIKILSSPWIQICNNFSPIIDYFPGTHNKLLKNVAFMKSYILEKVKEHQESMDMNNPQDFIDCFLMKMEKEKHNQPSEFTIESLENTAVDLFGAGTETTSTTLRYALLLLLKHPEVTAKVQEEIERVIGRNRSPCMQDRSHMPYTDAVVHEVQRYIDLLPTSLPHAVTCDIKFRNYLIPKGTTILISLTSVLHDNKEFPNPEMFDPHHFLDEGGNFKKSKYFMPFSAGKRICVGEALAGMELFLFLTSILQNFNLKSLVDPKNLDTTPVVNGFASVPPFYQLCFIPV

[3] = cited from earlier work
[4] = target: T2, UGT1A6 (Homo sapiens, UniProt P19224); assay: Inhibition of UGT1A6 (N-acetylserotonin glucuronidation) in human liver microsomes; type: in vitro ADME; details: substrate N-acetylserotonin; HLMs; average ± standard error
T2 construct: tissue XenoTech XTreme 200; host or cells: pooled human liver microsomes
T2 sequence (P19224 27-532): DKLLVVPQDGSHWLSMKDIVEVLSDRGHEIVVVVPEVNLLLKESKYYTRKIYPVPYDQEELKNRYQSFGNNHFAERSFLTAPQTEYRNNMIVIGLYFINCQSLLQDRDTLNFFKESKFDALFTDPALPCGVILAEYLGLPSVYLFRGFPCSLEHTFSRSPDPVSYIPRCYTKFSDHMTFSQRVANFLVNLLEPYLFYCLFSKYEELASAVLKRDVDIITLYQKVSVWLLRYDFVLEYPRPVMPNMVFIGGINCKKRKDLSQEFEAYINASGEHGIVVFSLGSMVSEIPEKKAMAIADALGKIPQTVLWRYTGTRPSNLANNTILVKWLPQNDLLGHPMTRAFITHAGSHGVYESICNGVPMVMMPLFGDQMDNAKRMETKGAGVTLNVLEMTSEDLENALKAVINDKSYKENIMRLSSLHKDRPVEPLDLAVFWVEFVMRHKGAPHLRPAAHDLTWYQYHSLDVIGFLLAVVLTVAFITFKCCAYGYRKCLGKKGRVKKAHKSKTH
Experimental: The ability of selamariscina A to inhibit the metabolism of six UGT enzyme probe substrates was evaluated using previously developed methods with minor modifications. The microsomal incubation was performed by dividing the non-interactive substrate cocktail sets (set A included SN-38 for UGT1A1, CDCA for UGT1A3 and TFP for UGT1A4 while set B included N-SER for UGT1A6, MPA for UGT1A9 and NX for UGT2B7) (Table 2). In brief, HLMs (0.25 mg/mL) were activated by incubation in the presence of alamethicin (25 µg/mL) for 15 min on ice. After the addition of UGT probe substrates and inhibitor (0, 0.5, 2, 5, 20 and 50 μM), the incubation mixtures were pre-incubated at 37 °C for 5 min. […] After centrifugation at 18,000 g (5 min, 4 °C), aliquots of supernatants were analyzed by LC–MS/MS. […]
All metabolites and the IS were separated on a Kinetex XB-C18 column (100 × 2.10 mm, 2.6 μm, 100 Å; Phenomenex, Torrance, CA, USA) and analyzed using a Shimadzu LCMS 8060 triple-quadrupole mass spectrometer coupled with a Nexera X2 ultra high-performance liquid chromatography system (Shimadzu, Kyoto, Japan) equipped with an electrospray ionization interface. […] Quantitation was conducted in selected reaction monitoring (SRM) modes with the precursor-to-product ion transition for each metabolite (Table 1 and Table 2).
We analyzed the data with Shimadzu LabSolution LC–MS software. […]

In the case of O=c1cc(-c2ccc(O)c(-c3c(O)cc(O)c4c(=O)cc(-c5ccc(O)cc5)oc34)c2)oc2cc(O)cc(O)c12 [amentoflavone], the IC50 [1] is given as 780 nM, the IC50 [2] is given as 35 nM and the Cmax ([3]; liposome-based Selaginella doderleinii Hieron extracts 200 mg/kg, read-out: Cmax after liposome-based extract) is given as 220 nM. For the same compound, the “Cmax, times higher than control” value ([3]; liposome-based extracts 200 mg/kg versus control) was 5.4 times, the “Maximum concentration in rat blood” value ([3]; single oral dose of Selaginella doderleinii Hieron extracts 200 mg/kg) was 0.041 µM and the “Maximum concentration in rat blood” value ([3]; single oral dose of Selaginella doderleinii Hieron extracts 600 mg/kg) was 0.063 µM.
Work on O=C1CC(c2cc(-c3c(O)ccc4c(=O)cc(-c5ccc(O)cc5)oc34)c(O)cc2O)Oc2cc(O)cc(O)c21 (stereo not shown) [selamariscina A] yielded an IC50 [4] of 46100 ± 11700 nM.
